Test [1] deals with steatosis-induced Huh7 cells. Put plainly: Fat globule reducing effect in steatosis-induced hepatocytes by Oil-Red-O staining. Type of test: cell-based. As to conditions: 250 μM PA, 0.5, 2.5 and 10 μM, concentration dependent, FIG. 7. On the procedure: According to an embodiment of the present invention, in order to confirm the effect of inhibiting the accumulation of triglycerides in steatosis-induced liver cells, the Huh7 cells were cultured in an incubator set at 37° C. with 95% humidity and 5% CO2.
Additionally, Huh7 cells were proliferated to a confluency of 80-90% on a plate using a growth medium (Dulbecco's modified Eagle's medium (DMEM) supplemented with 10% fetal bovine serum (FBS), 100 U/ml of penicillin, and 100 μg/ml of streptomycin), and then used for the experiment.
According to an embodiment of the present invention, in order to confirm the ability of BW-3290 to inhibit fat globule accumulation in steatosis-induced liver cells, the liver cells were treated with palmitic acid (PA) bound to 2% BSA at a concentration of 250 μM except for the control group to induce steatosis, and then fat globules were stained through Oil-Red-O staining.
First, liver cells were cultured to grow 80-90% confluency in a 12 well plate, and the test material were diluted in the culture medium that induced steatosis and the liver cells, except for the control group, were treated with 0.5 μM, 2.5 μM, and 10 μM of the test material.
Additionally, after removing the cell supernatant from the wells for Oil-Red-O staining, the washing process was performed twice with PBS. […]

Test [2] concerns the target T1, SIRT1 (Homo sapiens, UniProt Q96EB6).
T1 construct: purchased Cayman
T1 sequence (Q96EB6 1-747): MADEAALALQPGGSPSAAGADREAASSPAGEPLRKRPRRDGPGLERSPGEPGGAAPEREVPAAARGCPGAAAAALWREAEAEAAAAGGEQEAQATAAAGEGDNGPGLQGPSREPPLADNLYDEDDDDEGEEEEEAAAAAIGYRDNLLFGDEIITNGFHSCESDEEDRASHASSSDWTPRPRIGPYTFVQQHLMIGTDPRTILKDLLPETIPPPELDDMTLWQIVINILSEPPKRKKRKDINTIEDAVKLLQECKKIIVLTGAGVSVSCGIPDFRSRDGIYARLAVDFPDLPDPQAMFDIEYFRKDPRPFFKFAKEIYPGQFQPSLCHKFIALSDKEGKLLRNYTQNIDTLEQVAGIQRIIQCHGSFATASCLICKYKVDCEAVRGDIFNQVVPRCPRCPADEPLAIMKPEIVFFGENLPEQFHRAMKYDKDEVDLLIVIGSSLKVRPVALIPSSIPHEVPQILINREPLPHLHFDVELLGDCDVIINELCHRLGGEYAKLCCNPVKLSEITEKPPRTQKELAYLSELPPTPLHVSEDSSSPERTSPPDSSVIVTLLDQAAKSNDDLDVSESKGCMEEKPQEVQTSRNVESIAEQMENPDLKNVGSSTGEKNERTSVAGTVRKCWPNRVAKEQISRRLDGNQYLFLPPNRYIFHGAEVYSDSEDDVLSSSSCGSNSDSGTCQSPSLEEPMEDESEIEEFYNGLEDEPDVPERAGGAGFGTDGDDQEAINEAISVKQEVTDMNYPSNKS
Put plainly: Measurement of SIRT1 activity (Sirt1 direct fluorescent screening assay kit). Type of test: biochemical. As to conditions: compared with the control (RSV, resveratrol); FIG. 14. On the procedure:
All of the materials were provided from Sirt1 direct fluorescent screening assay kit (Cayman, Ann Arbor, Mich., USA).
SIRT1, p53 conjugated aminomethylcoumarin (AMC) protein, and 3 mM NAD+ were added to diluted assay buffer (50 mM Tris-HCl, pH 8.0, 137 mM NaCl, 2.7 mM KCl, and 1 mM MgCl2).
Three 100% initial activity wells among the 96-wells were added with 25 μL of assay buffer, 5 μL of diluted SIRT1, and 5 μL of a solvent.
Three background wells among the 96-wells were added with 30 μL of assay buffer and […].
Three sample wells among the 96-wells were added with 25 μL of assay buffer, 5 μL of diluted SIRT1, and 5 μL of a diluted test compound. The final DMSO concentration was lower than 2%. […]
After removing the plate cover, the plate was read with Cytation 5 using an excitation wavelength at 360 nm and an emission wavelength at 450 nm.
Then, the average level of fluorescence for each sample was measured.
The fluorescence level of the background well was subtracted from the fluorescence level of the 100% starting active well and that of the sample well.
To determine the percentage of each sample, each sample value was subtracted from the 100% initial activity value, divided by the 100% initial activity value, and multiplied by 100, and the resulting value was added to 100 and expressed as a percentage. […]

As for `CC(C)C(Nc1ncnc2nc[nH]c12)c1nc2cccc(Cl)c2c(=O)n1-c1ccccc1` (centres unmarked) [BW-3290, 2-(1-((7H-purin-6-yl)amino)-2-methylpropyl)-5-chloro-3-phenylquinazolin-4(3H)-one], the “fat globule staining (Oil-Red-O) compared to PA” value in test [1] is “lower level of fat globule staining compared to PA”. Besides, the SIRT1 activity level entry in test [2] is “further increases”.

The values are drawn from patent US20230097253A1, “NOVEL QUINAZOLINE COMPOUND AS THERAPEUTIC AGENT FOR METABOLIC DISORDERS” (BIOWAY., INC, priority 2020, published 2023).
